The values below come from ChEMBL document CHEMBL3098069, “Azide-alkyne cycloaddition affording enzymatically tunable bisubstrate based inhibitors of histone acetyltransferase PCAF” (Bioorg Med Chem Lett, 2014).

Activity calls are given as the source filed them. The calls are words filed in the database; no cut-off is given here. Square brackets hold non-standard residues; d marks the D form. Peptide text beside a SMILES is read from it. Lys(N3) = [N-]=[N+]=NCCCC[C@H](N)C(=O)O; pS = N[C@@H](COP(=O)(O)O)C(=O)O

For data set [1], the target named is T1, Histone acetyltransferase KAT2B (Homo sapiens, UniProt Q92831). The data set is described as follows: Inhibition of PCAF (unknown origin) using histone H3 derived peptide as substrate at 10^-6 to 10^-3 M after 20 mins by fluorescence assay.
Target sequence in this assay (Q92831 whole entry, looked up): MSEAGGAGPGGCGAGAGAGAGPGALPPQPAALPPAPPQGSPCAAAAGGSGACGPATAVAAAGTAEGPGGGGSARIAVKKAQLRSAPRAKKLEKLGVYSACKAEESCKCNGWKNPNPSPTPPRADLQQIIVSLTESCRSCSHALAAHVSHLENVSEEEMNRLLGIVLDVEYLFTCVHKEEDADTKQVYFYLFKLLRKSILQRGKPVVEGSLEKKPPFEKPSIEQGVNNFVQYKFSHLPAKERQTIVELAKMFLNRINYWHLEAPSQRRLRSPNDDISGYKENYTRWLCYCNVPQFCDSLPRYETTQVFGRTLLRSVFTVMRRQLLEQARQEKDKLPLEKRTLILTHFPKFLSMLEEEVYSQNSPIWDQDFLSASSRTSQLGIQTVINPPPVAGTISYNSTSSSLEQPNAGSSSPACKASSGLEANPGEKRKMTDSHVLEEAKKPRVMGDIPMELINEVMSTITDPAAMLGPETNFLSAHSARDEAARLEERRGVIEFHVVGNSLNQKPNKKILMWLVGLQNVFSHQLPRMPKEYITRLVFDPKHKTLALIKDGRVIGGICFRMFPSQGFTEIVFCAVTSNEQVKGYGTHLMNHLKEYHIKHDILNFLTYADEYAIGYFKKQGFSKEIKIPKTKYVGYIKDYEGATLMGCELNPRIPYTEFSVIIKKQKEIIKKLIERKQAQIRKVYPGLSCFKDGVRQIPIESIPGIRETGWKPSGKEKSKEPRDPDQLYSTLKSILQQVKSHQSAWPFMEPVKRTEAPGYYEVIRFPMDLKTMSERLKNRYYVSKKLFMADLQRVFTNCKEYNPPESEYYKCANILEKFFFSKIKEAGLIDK
For data set [2], the target named is T1, Histone acetyltransferase KAT2B. The data set is described as follows: Inhibition of PCAF (unknown origin) using histone H3 derived peptide as substrate after 20 mins by fluorescence assay.
Target sequence in this assay (Q92831 whole entry): as the sequence (Q92831 whole entry, looked up) above
The nature of data set [3]: Drug degradation in NEB buffer at 1 mg after 10 to 120 mins by RP-HPLC analysis. The class given is physicochemical.
Data set [4] has as its target T1, Histone acetyltransferase KAT2B. The data set is described as follows: Competitive inhibition of PCAF (unknown origin) using histone H3 derived peptide as substrate after 20 mins by fluorescence assay.
Target sequence in this assay (Q92831 whole entry): as the sequence (Q92831 whole entry, looked up) above
Data set [5] addresses Serine/threonine-protein kinase pim-1 (Homo sapiens, UniProt P11309). The data set is described as follows: Drug degradation in NEB buffer assessed as PIM1 kinase (unknown origin)-mediated H3-pSer-CoA formation at 1 mg after 60 mins by RP-HPLC analysis. The class given is ADME. Particulars: 1 h.
Data set [6] can be described thus: Drug degradation in NEB buffer assessed as Protein phosphatase 1 (unknown origin)-mediated H3-Ser-CoA formation at 1 mg after 30 mins by RP-HPLC analysis. The class given is ADME, Homo sapiens. The settings on record: 0.5 h.

Sequence of Serine/threonine-protein kinase pim-1 (P11309 whole entry): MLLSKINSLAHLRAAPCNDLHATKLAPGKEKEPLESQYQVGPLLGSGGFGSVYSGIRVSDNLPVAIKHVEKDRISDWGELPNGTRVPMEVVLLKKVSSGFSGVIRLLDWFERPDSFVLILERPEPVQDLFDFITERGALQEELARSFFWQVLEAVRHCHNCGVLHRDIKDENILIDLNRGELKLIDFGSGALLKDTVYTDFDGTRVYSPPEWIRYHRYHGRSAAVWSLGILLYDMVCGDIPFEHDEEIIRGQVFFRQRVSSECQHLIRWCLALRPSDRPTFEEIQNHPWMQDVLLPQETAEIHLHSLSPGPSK

In the case of `C#CCSCCNC(=O)CCNC(=O)[C@@H](O)C(C)(C)COP(=O)(O)OP(=O)(O)OC[C@H]1O[C@@H](n2cnc3c(N)ncnc32)[C@H](O)[C@@H]1OP(=O)(O)O`, the inhibition result in data set [1] is “inactive”.
On to `CC(=O)N[C@@H](C)C(=O)N[C@@H](CCCNC(=N)N)C(=O)N[C@@H](CCCCN)C(=O)N[C@@H](CO)C(=O)N[C@H](C(=O)NCC(=O)NCC(=O)N[C@@H](CCCCn1cc(CSCCNC(=O)CCNC(=O)[C@@H](O)C(C)(C)COP(=O)(O)OP(=O)(O)OC[C@H]2O[C@@H](n3cnc4c(N)ncnc43)[C@H](O)[C@@H]2OP(=O)(O)O)nn1)C(=O)N[C@@H](C)C(=O)N1CCC[C@H]1C(=O)N[C@@H](CCCNC(=N)N)C(=O)N[C@@H](CCCCN)C(N)=O)[C@@H](C)O`, for which the IC50 was determined as 2.8 µM in data set [2] and 117 µM in data set [4]. For the same molecule, in data set [3], the Stability result is “Unstable”. Moreover, the Drug degradation result in data set [5] was “Active”.
Take `CC(=O)N[C@@H](C)C(=O)N[C@@H](CCCNC(=N)N)C(=O)N[C@@H](CCCCN)C(=O)N[C@@H](COP(=O)(O)O)C(=O)N[C@H](C(=O)NCC(=O)NCC(=O)N[C@@H](CCCCN=[N+]=[N-])C(=O)N[C@@H](C)C(=O)N1CCC[C@H]1C(=O)N[C@@H](CCCNC(=N)N)C(=O)N[C@@H](CCCCN)C(N)=O)[C@@H](C)O` (Ac-ARK[pS]TGG[Lys(N3)]APRK-NH2): the inhibition result in data set [1] was “inactive”.
As to `CC(=O)N[C@@H](C)C(=O)N[C@@H](CCCNC(=N)N)C(=O)N[C@@H](CCCCN)C(=O)N[C@@H](COP(=O)(O)O)C(=O)N[C@H](C(=O)NCC(=O)NCC(=O)N[C@@H](CCCCn1cc(CSCCNC(=O)CCNC(=O)[C@@H](O)C(C)(C)COP(=O)(O)OP(=O)(O)OC[C@H]2O[C@@H](n3cnc4c(N)ncnc43)[C@H](O)[C@@H]2OP(=O)(O)O)nn1)C(=O)N[C@@H](C)C(=O)N1CCC[C@H]1C(=O)N[C@@H](CCCNC(=N)N)C(=O)N[C@@H](CCCCN)C(N)=O)[C@@H](C)O`, the IC50 is 1.7 µM in data set [2] and 33 µM in data set [4]. Further, the Stability result in data set [3] is recorded as “Unstable”. Further, the Drug degradation result in data set [6] is reported as “Active”.
`CC(=O)N[C@@H](C)C(=O)N[C@@H](CCCNC(=N)N)C(=O)N[C@@H](CCCCN)C(=O)N[C@@H](CO)C(=O)N[C@H](C(=O)NCC(=O)NCC(=O)N[C@@H](CCCCN=[N+]=[N-])C(=O)N[C@@H](C)C(=O)N1CCC[C@H]1C(=O)N[C@@H](CCCNC(=N)N)C(=O)N[C@@H](CCCCN)C(N)=O)[C@@H](C)O` (Ac-ARKSTGG[Lys(N3)]APRK-NH2): the inhibition entry in data set [1] was “inactive”.

The term IC50 denotes the point on the concentration scale where inhibition reaches its midpoint.
